# Test results from patent US6342602B1, “Aryl or heteroaryl amides of tetrahydronaphthalene, chroman, thichroman and 1,2,3,4-tetrahydroquinolinecarboxlic acids, having an electron withdrawing substituent in the aromatic or heteroaromatic moiety, having retinoid-like biological activity” (Allergan Sales, Inc., priority 1995, dated 2002).
# Key:
# RPMI 8226 = assay: Cancer cell line assay, incorporation of 3H-thymidine; type: cell-based, human; conditions: 10^−11 to 10^−6 molar concentration range, 96 hours
# Method: (§1) All trans-Retinoic acid (t-RA) (Sigma Chemicals Co., St. Louis, M.) was stored at −70° C. Prior to each experimet the compound was dissolved in 100% ethanol at 1 mM and diluted in culture medium immediately before use. All experiments were performed in subdued light. Controls were assayed using the same concentration of ethanol as present in the experimental plates and this concentration of diluent had no effect in either assay.
# All cell lines, RPMI 8226, ME-180 and AML-193 were obtained from the American Type Culture Collection (ATCC, Rockville, Md.). RPMI 8226 is a human hematopoietic cell line obtained from the peripheral blood of a patient with multiple myeloma. The cells resemble the lymphoblastoid cells of other human lymphocyte cell lines and secrete […] light chains of immunoglobulin. RPMI-8226 cells are grown in RPMI medium (Gibco) supplemented with 10% fetal bovine serum, glutamine and antibiotics. The cells were maintained as suspension cultures grown at 37° C. in a humidified atmosphere of 5% CO2 in air. The cells were diluted to a concentration of 1×10^5/ml twice a week.
# The method used for determination of the incorporation of radiolabeled thymidine was adapted from the procedure described by Shrivastav et al. RPMI-8226 cells were plated in a 96 well round bottom microtiter plate (Costar) at a density of 1,000 cells/well. To appropriate wells, retinoid test compounds were added at the final concentrations indicated for a final volume of 150 μl/well. The plates were incubated for 96 hours at 37° C. in a humidified atmosphere of 5% CO2 in air. Subsequently, 1 μCi of (5′-^3H]-thymidine (Amersham, U.K. 43 Ci/mmol specific activity) in 25 μl culture medium was added to each well and the cells were incubated for an additional 6 hours. The cultures were further processed as described below.
# (§2) All cells lines were then processed as follows: the cellular DNA was precipitated with […] trichloroacetic acid onto glass fiber filter mats using a SKATRON multi-well cell harvester (Skatron Instruments, Sterling Va.). Radioactivity incorporated into DNA, as a direct measurement of cell growth, was measured by liquid scintillation counting. The numbers represent the mean disintegrations per minute of incorporated thymidine from triplicate wells±SEM.
# AML-193 = assay: as above; type: cell-based; conditions: 10^−11 to 10^−6 molar concentration range, 96 hours
# Method: as §1
# AML-193 was established from the blast cells classified as M5 Acute Monocyte Leukemia. The growth factor, […] (GM-CSF) was required to establish this cell line and growth factors are necessary for its continuous proliferation in chemically defined medium. AML-193 cells were grown and maintained in Iscove's modified Dulbeccous medium supplemented with 10% fetal bovine serum, glutamine and antibiotics with 5 μg/ml insulin (Sigma Chemical Co.) and 2 ng/ml rh GM-CSF (R and D Systems). The cells were diluted to a concentration of 3×10^5/ml twice a week.
# ME-180 wells, harvested by trypsinization were plated in a 96 well flat bottom microtiter plate (Costar) at a density of 2,000 cells/well. The cultures were treated as described above for RPMI 8226 with the following exceptions. After incubation with thymidine the supernatant was carefully removed, and the cells were washed with a 0.5 mM solution of thymidine in phosphate buffered saline. ME180 cells were briefly treated with 50 μl of 2.5% trypsin to dislodge the cells from the plate. AML-193 cells were plated in a 96 well round bottom microtiter plate (Costar) at a density of 1,000 cells/well. To appropriate wells, retinoid test compounds were added at the final concentrations indicated for a final volume of 150 μl/well. The plates were incubated for 96 hours at 37° C. in a humidified atmosphere of 5% CO2 in air. Subsequently, 1 μCi of [5′-^3H]-thymidine (Amersham, U.K., 43 Ci/mmol specific activity) in 25 μl culture medium was added to each well and the cells were incubated for an additional 6 hours.
# as §2
smiles,measurement,setting,value
CC1(C)CCC(C)(C)c2c(Br)cc(C(=O)Nc3ccc(C(=O)O)c(F)c3)cc21 [Compound 6],proliferation of the tumor cell line (incorporation of radioactive labeled thymidine),RPMI 8226,significant decrease in the proliferation
same,proliferation of the tumor cell line (incorporation of radioactive labeled thymidine),AML-193,significant decrease in the proliferation
CC1(C)CCC(C)(C)c2cc(C(=O)Nc3ccc(C(=O)O)c(F)c3)c(O)cc21 [Compound 8],proliferation of the tumor cell line (incorporation of radioactive labeled thymidine),RPMI 8226,significant decrease in the proliferation
same,proliferation of the tumor cell line (incorporation of radioactive labeled thymidine),AML-193,significant decrease in the proliferation
CC1(C)CC(C)(C)c2cc(C(=O)Nc3ccc(C(=O)O)c(F)c3)cc(Br)c2O1 [Compound 12],proliferation of the tumor cell line (incorporation of radioactive labeled thymidine),RPMI 8226,significant decrease in the proliferation
same,proliferation of the tumor cell line (incorporation of radioactive labeled thymidine),AML-193,significant decrease in the proliferation
CC1(C)CC(C)(C)c2cc(C(=O)Nc3ccc(C(=O)O)c(F)c3)cc(C(F)(F)F)c2O1 [Compound 14],proliferation of the tumor cell line (incorporation of radioactive labeled thymidine),RPMI 8226,significant decrease in the proliferation
same,proliferation of the tumor cell line (incorporation of radioactive labeled thymidine),AML-193,significant decrease in the proliferation
CC1(C)CC(C)(C)c2cc(C(=O)Nc3ccc(C(=O)O)c(F)c3)cc(I)c2O1 [Compound 20],proliferation of the tumor cell line (incorporation of radioactive labeled thymidine),RPMI 8226,significant decrease in the proliferation
same,proliferation of the tumor cell line (incorporation of radioactive labeled thymidine),AML-193,significant decrease in the proliferation
